As usually defined, the EC50 is the midpoint of the concentration-response curve. What is called Ki is the equilibrium dissociation constant of an inhibitor or competing ligand from its target. Low readings indicate tighter binding, high ones weaker binding.

Where two headings read alike, the source gives them in different places.

This is an account of results in patent publication US8518952B2, “6 substituted 2-heterocyclylamino pyrazine compounds as CHK-1 inhibitors” (Pfizer Inc., priority 2008, dated 2013).

For one experiment, the system named is HeLa cells. Description: Histone H3 (Ser10) phosphorylation ELISA, abrogation of camptothecin-induced G2 arrest (CHK-1 cellular assay). The class given is cell-based. To be noted: HeLa cells, camptothecin 8 hrs, then compound with nocodozole 16 hours, read-out: EC50. The method, then: The Histone H3 phosphorylation ELISA assay detects cells entering mitosis and represents the primary in vitro cell-based assay used to measure the cellular potency of compounds in abrogating the G2 check point induced by DNA damage in HeLa cells or MiaPaCa cells. The candidate substances were assayed for potency in their ability to inhibit camptothecin-induced G2 arrest, as measured by an increase in Histone H3 phosphorylation on Ser10, a marker of entry into mitosis.
Tissue culture plates were seeded with HeLa cells or MiaPaCa Cells and allowed to attach overnight. The cells were then treated with camptothecin to induce DNA damage for 8 hrs. Candidate substances or diluent were then added in the presence of nocodozole for 16 hours. […] The fresh whole cell lysates were then thawed and added to the ELISA plate with shaking for 3 hours. Between all subsequent steps plates were washed 4 times with PBST. Biotinylated phospho Histone H3 (ser10) detection antibody was added for 1 hour, followed by addition of horseradish peroxidase-linked streptavidin secondary antibody for 1 hour. Color development of the antibody was performed with addition of TMB substrate and incubation for 2 minutes on a plate shaker. […] EC50 values were calculated by sigmoid curve fitting using a four-parameter analysis.
(§1) Under the “Ki” column, data entries in the format of “%” are percent inhibition data where no Ki data is available. Data entry under the “EC50” column with an * are data obtained using Mia Paca-2 cells rather than HeLa cells. Data is not available where noted as n/a.

The target in the next experiment is T1, CHK1 (kinase domain) (Homo sapiens, UniProt O14757).
T1 construct: a solution containing 1 nM of CHK1 (kinase domain)
T1 sequence (O14757 9-265 limits assumed): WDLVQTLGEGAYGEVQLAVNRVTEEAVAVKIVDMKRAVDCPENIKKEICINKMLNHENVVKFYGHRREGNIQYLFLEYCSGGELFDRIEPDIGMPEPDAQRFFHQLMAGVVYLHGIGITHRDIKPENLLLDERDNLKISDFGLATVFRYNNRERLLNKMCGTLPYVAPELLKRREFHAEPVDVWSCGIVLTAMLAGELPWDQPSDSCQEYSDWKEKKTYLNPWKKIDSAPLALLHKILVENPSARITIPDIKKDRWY
Description: CHK1 Ki determination, spectrophotometric coupled (pyruvate kinase/lactate dehydrogenase) assay. The experiment is classed as biochemical. To be noted: CHK-1 kinase domain; for Ki: 150 uM ATP, 125 uM Syntide 2; for percent inhibition (where no Ki data is available): inhibitor concentration not given. The method, then:
After 15 min pre-incubation, the enzymatic reaction was initiated by the simultaneous addition of Syntide 2 peptide (125 uM, final concentration) and ATP (150 uM, final concentration). The kinase-catalyzed production of ADP from ATP that accompanied phosphoryl transfer to the substrate Syntide 2 was coupled to the oxidation of NADH through the activities of pyruvate kinase and lactate dehydrogenase. NADH conversion to NAD^+ was monitored by the decrease in absorbance at 340 nm (ε=6.22 cm^−1 mM^−1) using a microplate reader from Molecular Devices Spectormax Plus (Sunnyvale, Calif.) or BMG LABTECH Inc (Offenburg, Germany).
The inhibition of CHK1 was analyzed by fitting the data to the following equation to determine Kiapp:
[formula] where [E]o and [I]o are the active enzyme and inhibitor concentration, respectively; Ki is the inhibition binding constant and Km the Michaelis-Menten constant for ATP; Vi and Vo are the rates of substrate oxidation in the presence of and in the absence of inhibitor, respectively. EC50 Determination (Cellular Assay)
as §1

On to `CC(C)c1cn2c(-c3cncc(N[C@@H]4CCCN[C@@H]4C)n3)cnc2s1` [Example 111, 6-(2-isopropylimidazo[2,1-b][1,3]thiazol-5-yl)-N-[(2R,3R)-2-methylpiperidin-3-yl]pyrazin-2-amine], for which the EC50 in the experiment on HeLa cells was 22.4 nM. This molecule also returned a Ki on CHK1 (kinase domain) of 3.63 nM.
Consider `c1ccn2c(-c3cncc(N[C@H]4CCNC4)n3)cnc2c1` [Example 48, 6-Imidazo[1,2-a]pyridin-3-yl-N-[(3S)-pyrrolidin-3-yl]pyrazin-2-amine], for which the EC50 in the experiment on HeLa cells (Homo sapiens, HeLa) was 600 nM. This molecule showed an inhibition constant (Ki) at CHK1 (kinase domain) of 165 nM.
As for `CC(C)c1cn2c(-c3cncc(N[C@@H]4CCCN[C@H]4C)n3)cnc2s1` [Example 169, N-[(2S,3R)-2-methylpiperidin-3-yl]-6-[2-(propan-2-yl)imidazo[2,1-b][1,3]thiazol-5-yl]pyrazin-2-amine], the EC50 with HeLa cells came to 1850 nM. Further, the “percent inhibition (where no Ki data is available)” value on CHK1 (kinase domain) turned out to be 45.9%^.
For the molecule `c1ccn2c(-c3cncc(N[C@@H]4CCNC4)n3)cnc2c1` [Example 10, 6-Imidazo[1,2-a]pyridin-3-yl-N-[(3R)-pyrrolidin-3-yl]pyrazin-2-amine], in the experiment with HeLa cells (Homo sapiens, HeLa), the EC50 was 244 nM. The affinity on CHK1 (kinase domain), expressed as Ki, was 23.6 nM.
Take `C[C@H]1NCCC[C@@H]1Nc1cncc(-c2cnc3ccccn23)n1` [Example 132, 6-imidazo[1,2-a]pyridin-3-yl-N-[(2R,3S)-2-methylpiperidin-3-yl]pyrazin-2-amine]: the EC50 in the experiment with HeLa cells (Homo sapiens, HeLa) was ≥ 10000 nM. Also, the “percent inhibition (where no Ki data is available)” value on CHK1 (kinase domain) stood at 18.3%^.
Consider `FC(F)[C@@H]1C[C@@H](Nc2cncc(-c3cnn4cc(Cl)ccc34)n2)CN1` [Example 100, 6-(6-chloropyrazolo[1,5-a]pyridin-3-yl)-N-[(3R,5S)-5-(difluoromethyl)pyrrolidin-3-yl]pyrazin-2-amine], for which the concentration for a half-maximal effect (EC50) with HeLa cells (Homo sapiens, HeLa) worked out at 3530 nM. Moreover, the affinity on CHK1 (kinase domain) corresponds to a Ki of 14.6 nM.
On the same counts, the results for `Fc1ccc2c(-c3cncc(N[C@@H]4CCCNC4)n3)cnn2c1` [Example 198, 6-(6-fluoropyrazolo[1,5-a]pyridin-3-yl)-N-[(3R)-piperidin-3-yl]pyrazin-2-amine] are 23.4 nM and 1.09 nM.
As to `c1ccn2c(-c3cncc(NC4CC5CNC4C5)n3)cnc2c1` (stereo not shown) [Example 159, N-[6-(imidazo[1,2-a]pyridin-3-yl)pyrazin-2-yl]-2-azabicyclo[2.2.1]heptan-6-amine], the EC50 in the experiment on HeLa cells (Homo sapiens, HeLa) was determined as 166 nM. In addition, the affinity at CHK1 (kinase domain), expressed as Ki, was 20.8 nM.
As to `CC(C)c1cn2c(-c3cncc(N[C@@H]4CCCN[C@@H]4C)n3)cnc2s1` [Example 165, N-[(2R,3R)-2-methylpiperidin-3-yl]-6-[2-(propan-2-yl)imidazo[2,1-b][1,3]thiazol-5-yl]pyrazin-2-amine], the EC50 in the experiment on HeLa cells was found to be 123 nM. At CHK1 (kinase domain), the affinity corresponds to a Ki of 1.09 nM.
Consider `CC[C@@H]1CNC[C@@H]1Nc1cncc(-c2cnc3ccccn23)n1` [Example 196, N-[(3R,4R)-4-ethylpyrrolidin-3-yl]-6-(imidazo[1,2-a]pyridin-3-yl)pyrazin-2-amine], for which the EC50 in the experiment with HeLa cells (Homo sapiens, HeLa) worked out at 16.8 nM. Moreover, the Ki on CHK1 (kinase domain) worked out at 32 nM.
On the same counts, the results for `CO[C@H]1CNC[C@H](Nc2cncc(-c3cnc4ccccn34)n2)C1` [Example 156, 6-(imidazo[1,2-a]pyridin-3-yl)-N-[(3R,5R)-5-methoxypiperidin-3-yl]pyrazin-2-amine] are 314 nM and 28.4 nM.
On the same counts, the results for `OCc1ccc2ncc(-c3cncc(N[C@@H]4CCCNC4)n3)n2c1` [Example 151, (3-{6-[(3R)-piperidin-3-ylamino]pyrazin-2-yl}imidazo[1,2-a]pyridin-6-yl)methanol] are 78.7 nM and 1.07 nM.
As to `C[C@@H]1CNC[C@@H]1Nc1cncc(-c2cnn3ccccc23)n1` [Example 119, N-[(3R,4R)-4-methylpyrrolidin-3-yl]-6-pyrazolo[1,5-a]pyridin-3-ylpyrazin-2-amine], the EC50 with HeLa cells (Homo sapiens, HeLa) came to 26.7 nM. For the same molecule, at CHK1 (kinase domain), affinity was put at a Ki of 5.38 nM.
The corresponding values for `C[C@@H]1CNC[C@@H]1Nc1cncc(-c2cnc3cc(-c4cnn(C)c4)ccn23)n1` [Example 209, 6-[7-(1-methyl-1H-pyrazol-4-yl)imidazo[1,2-a]pyridin-3-yl]-N-[(3R,4R)-4-methylpyrrolidin-3-yl]pyrazin-2-amine] are 123 nM and 1.3 nM.
For the molecule `CC(C)Oc1ccc2ncn(-c3cncc(N[C@@H]4CCCNC4)n3)c2c1` [Example 150, 6-(6-isopropoxy-1H-benzimidazol-1-yl)-N-[(3R)-piperidin-3-yl]pyrazin-2-amine], the EC50 in the experiment on HeLa cells (Homo sapiens, HeLa) stood at 284 nM. This molecule also showed a Ki at CHK1 (kinase domain) of 5.91 nM.
The corresponding values for `Cc1cn2c(-c3cncc(N[C@H]4CN[C@H](C)C4)n3)cnc2s1` [Example 178, 6-(2-methylimidazo[2,1-b][1,3]thiazol-5-yl)-N-[(3R,5R)-5-methylpyrrolidin-3-yl]pyrazin-2-amine] are 31.2 nM and 2.01 nM.
For `C[C@@H]1CC[C@@H](Nc2cncc(-c3cnc4ccccn34)n2)CN1` [Example 31, 6-imidazo[1,2-a]pyridin-3-yl-N-[(3R,6R)-6-methylpiperidin-3-yl]pyrazin-2-amine], the EC50 in the experiment with HeLa cells (Homo sapiens, HeLa) was 183 nM. At CHK1 (kinase domain), the Ki is 27.3 nM.
`COc1ccc2ncn(-c3cncc(N[C@@H]4CCNC4)n3)c2c1` [Example 216, 6-(6-methoxy-1H-benzimidazol-1-yl)-N-[(3R)-pyrrolidin-3-yl]pyrazin-2-amine]: the EC50 in the experiment on HeLa cells (Homo sapiens, HeLa) was 35.8 nM. Also, the affinity on CHK1 (kinase domain) corresponds to a Ki of 15.5 nM.
On the same counts, the results for `OC[C@@H]1CNC[C@@H]1Nc1cncc(-c2cnn3cc(Cl)ccc23)n1` [Example 201, [(3R,4R)-4-{[6-(6-chloropyrazolo[1,5-a]pyridin-3-yl)pyrazin-2-yl]amino}pyrrolidin-3-yl]methanol] are 48.9 nM and 4.88 nM.
On the same counts, the results for `FC[C@@H]1C[C@@H](Nc2cncc(-c3cnn4cc(Cl)ccc34)n2)CN1` [Example 79, 6-(6-chloropyrazolo[1,5-a]pyridin-3-yl)-N-[(3R,5S)-5-(fluoromethyl)pyrrolidin-3-yl]pyrazin-2-amine] are 184 nM and 5.68 nM.
On the same counts, the results for `CC(C)OCCOc1ccn2c(-c3cncc(N[C@@H]4CCNC4)n3)cnc2c1` [Example 213, 6-{7-[2-(propan-2-yloxy)ethoxy]imidazo[1,2-a]pyridin-3-yl}-N-[(3R)-pyrrolidin-3-yl]pyrazin-2-amine] are ≥ 10000 nM and 3.58 nM.
For the molecule `C[C@@H]1CNC[C@@H]1Nc1cncc(-n2cnc3cc(-c4cnn(C)c4)ccc32)n1` [Example 34, 6-[5-(1-methyl-1H-pyrazol-4-yl)-1H-benzimidazol-1-yl]-N-[(3R,4R)-4-methylpyrrolidin-3-yl]pyrazin-2-amine], in the experiment with HeLa cells (Homo sapiens, HeLa), the EC50 worked out at 29 nM. Also, at CHK1 (kinase domain), the Ki was 3.38 nM.
On the same counts, the results for `COc1ccn2c(-c3cncc(N[C@@H]4C[C@@H]5CN[C@H]4C5)n3)cnc2c1` [Example 124, (1S,4R,6R)-N-[6-(7-methoxyimidazo[1,2-a]pyridin-3-yl)pyrazin-2-yl]-2-azabicyclo[2.2.1]heptan-6-amine] are ≥ 10000 nM and 2.29 nM.
As to `Fc1ccc2ncc(-c3cncc(N[C@@H]4CCNC4)n3)n2c1` [Example 91, 6-(6-fluoroimidazo[1,2-a]pyridin-3-yl)-N-[(3R)-pyrrolidin-3-yl]pyrazin-2-amine], the EC50 in the experiment with HeLa cells (Homo sapiens, HeLa) came to 497 nM. For the same molecule, at CHK1 (kinase domain), the Ki stood at 18.7 nM.
On to `CCc1cn2c(-c3cncc(N[C@H]4CCCN[C@@H]4C)n3)cnc2s1` [Example 174, 6-(2-ethylimidazo[2,1-b][1,3]thiazol-5-yl)-N-[(2R,3S)-2-methylpiperidin-3-yl]pyrazin-2-amine], for which the EC50 with HeLa cells (Homo sapiens, HeLa) was ≥ 10000 nM. Also, the Ki on CHK1 (kinase domain) is 16.9 nM.
On to `Clc1ccn2c(-c3cncc(N[C@@H]4CCCNC4)n3)cnc2c1` [Example 44, 6-(7-Chloroimidazo[1,2-a]pyridin-3-yl)-N-[(3R)-piperidin-3-yl]pyrazin-2-amine], for which the EC50 in the experiment with HeLa cells (Homo sapiens, HeLa) is 21 nM. Moreover, at CHK1 (kinase domain), the Ki came out at 2.51 nM.
